Experimental data: patent publication US9738932B2, “Biomarkers for cardiovascular side-effects induced by cox-2 inhibitory compounds” (FIRALIS SAS, priority 2005, dated 2017)

Tested on: mRNA expression in cardiovascular tissues
Experiment: Affymetrix GeneChip mRNA expression profiling of monkey tissues (iliac vein, pulmonary vein, aorta, carotid artery, heart) after two-week oral-gavage treatment
Conditions: iliac vein
[1] = group average (Vioxx without A60055)
[2] = group avg, Vioxx without A60055

Method: Administration of compounds. A two-week oral-gavage treatment with the Cox-2 specific inhibitor COX189 (Lumiracoxib®, Novartis) in comparison with rofecoxib (Vioxx®, Merck), and celecoxib (Celebrex®, Pharmacia/Pfizer), and with the nonselective NSAID, diclofenac (Voltaren®, Novartis) was performed. […] The test items were administered daily at doses of 100 mg/kg/day, except Vioxx® which was administered at 50 mg/kg/day.
Gene expression profiles. After a period of time (e.g., four weeks) of compound/drug administration, the treated animals are necropsied. 120 tissues are dissected and rapidly snap-frozen for genomics analysis. Organ samples are isolated for histopathological examinations and for gene expression localizations, such as by in situ hybridization.
Gene expression profiles have been generated using the Affymetrix microarray technology. (i) RNA extraction and purification: Briefly, total RNA was obtained by acid guanidinium thiocyanate-phenol-chloroform extraction (Trizol®, Invitrogen Life Technologies, San Diego, Calif.) from each frozen tissue section and the total RNA was then purified on an affinity resin (Rneasy®, Qiagen) according to the manufacturer's instructions. Total RNA was quantified by the absorbance at λ=260 nm (A260 nm) and the purity was estimated by the ratio A260 nm/A280 nm. Integrity of the RNA molecules was confirmed by non-denaturing agarose gel electrophoresis. RNA was stored at −80° C. until analysis. […] (ii) GeneChip® experiment: All GeneChip® experiments were conducted in the Genomics Factory EU following recommendations by the manufacturer of the GeneChip® system (Affymetrix, Expression Analysis Technical Manual (Affymetrix, Santa Clara, Calif., 2005). Human U133A genome arrays were used for transcript expression analysis. Double stranded cDNA was synthesized with a starting amount of approximately 5 μg full-length total RNA using the Superscript Choice System (Invitrogen Life Technologies) in the presence of a T7-(dT) 24 DNA oligonucleotide primer. Following synthesis, the cDNA was purified by phenol/chloroform/isoamyl alcohol extraction and ethanol precipitation. The purified cDNA was then transcribed in vitro using the BioArray® High Yield RNA Transcript Labeling Kit (ENZO) in the presence of biotinylated ribonucleotides form biotin labelled cRNA. The labelled cRNA was then purified on an affinity resin (Rneasy, Qiagen), quantified and fragmented. An amount of approximately 10 μg labelled cRNA was hybridized for approximately 16 hours at 45° C. to an expression probe array. The array was then washed and stained twice with streptavidin-phycoerythrin (Molecular Probes) using the GeneChip Fluidics Workstation 400 (Affymetrix). The array was then scanned twice using a confocal laser scanner (GeneArray Scanner®, Agilent) resulting in one scanned image. This resulting “.dat-file” was processed using the MASS program (Affymetrix) into a “.cel-file”. The “.cel file” was then transferred to tan Affymetrix GeneChip Laboratory Information Management System (LIMS) database, which is connected to a UNIX Sun Solaris server through a network filing system that allows for the average intensities for all probes cells (CEL file) to be downloaded into an Oracle database (NPGN). Raw data was converted to expression levels using a “target intensity” of 100. […] The data were checked for quality and loaded in the GeneSpring® software versions 5.0 (Silicon Genetics, Calif., US) for statistical analysis.
Quality control analysis of transcriptome data: The following quality measures were analysed for each sample: Scaling factor, background, percent present calls, AFFX-GAPDH 3′: AFFX-GAPDH 5′-ratio, AFFX-GAPDH 3′ variance, AFFX-Beta-actin 3′: AFFX-Beta-actin 5′-ratio.

## O=C(O)Cc1ccccc1Nc1c(Cl)cccc1Cl [Voltaren]
[1]
  ACE (209749_s_at) mRNA expression, Avg fold changes vs control: 1.1 fold
  B2M (216231_s_at) mRNA expression, Avg fold changes vs control: 1.2 fold
  BCL6 (215990_s_at) mRNA expression, Avg fold changes vs control: 1.0 fold
  BTN2A2 (205298_s_at) mRNA expression, Avg fold changes vs control: 1.1 fold
  CCR1 (205098_at) mRNA expression, Avg fold changes vs control: 1.3 fold
  CD2 (205831_at) mRNA expression, Avg fold changes vs control: 1.1 fold
  CD48 (204118_at) mRNA expression, Avg fold changes vs control: 1.2 fold
  CD53 (203416_at) mRNA expression, Avg fold changes vs control: 1.4 fold
  CDC2 (210559_s_at) mRNA expression, Avg fold changes vs control: 1.2 fold
  CYBB (203922_s_at) mRNA expression, Avg fold changes vs control: 1.1 fold
  EMP3 (203729_at) mRNA expression, Avg fold changes vs control: 0.8 fold
  FCER1G (204232_at) mRNA expression, Avg fold changes vs control: 1.5 fold
  FCGR2A (203561_at) mRNA expression, Avg fold changes vs control: 1.4 fold
  FCGRT (218831_s_at) mRNA expression, Avg fold changes vs control: 0.9 fold
  FKBP11 (219117_s_at) mRNA expression, Avg fold changes vs control: 0.7 fold
  FKBP11 (219118_at) mRNA expression, Avg fold changes vs control: 0.8 fold
  GP6 (220336_s_at) mRNA expression, Avg fold changes vs control: 1.0 fold
  HCLS1 (202957_at) mRNA expression, Avg fold changes vs control: 1.1 fold
  HEM1 (209734_at) mRNA expression, Avg fold changes vs control: 1.1 fold
  HLA-A (210514_x_at) mRNA expression, Avg fold changes vs control: 1.0 fold
  HLA-A (213932_x_at) mRNA expression, Avg fold changes vs control: 1.1 fold
  HLA-C (211799_x_at) mRNA expression, Avg fold changes vs control: 0.8 fold
  HLA-E (200904_at) mRNA expression, Avg fold changes vs control: 1.2 fold
  HLA-F (221978_at) mRNA expression, Avg fold changes vs control: 1.4 fold
  ICAM1 (202637_s_at) mRNA expression, Avg fold changes vs control: 1.0 fold
  IL13RA1 (210904_s_at) mRNA expression, Avg fold changes vs control: 0.9 fold
  PIK3CD (203879_at) mRNA expression, Avg fold changes vs control: 1.3 fold
  PRKCBP1 (209048_s_at) mRNA expression, Avg fold changes vs control: 1.0 fold
  PRKCBP1 (209049_s_at) mRNA expression, Avg fold changes vs control: 1.0 fold
  PTPN7 (204852_s_at) mRNA expression, Avg fold changes vs control: 1.4 fold
  SIGIRR (52940_at) mRNA expression, Avg fold changes vs control: 1.0 fold
  STAT1 (200887_s_at) mRNA expression, Avg fold changes vs control: 1.1 fold
  STAT1 (AFFX-HUMISGF3A/M97935_3_at) mRNA expression, Avg fold changes vs control: 1.0 fold
  STAT3 (208992_s_at) mRNA expression, Avg fold changes vs control: 1.1 fold
  TCIRG1 (204158_s_at) mRNA expression, Avg fold changes vs control: 1.0 fold
  THY1 (213869_x_at) mRNA expression, Avg fold changes vs control: 0.6 fold
  TMPO (209753_s_at) mRNA expression, Avg fold changes vs control: 1.1 fold
  TMSB10 (217733_s_at) mRNA expression, Avg fold changes vs control: 1.2 fold
  TNFRSF21 (218856_at) mRNA expression, Avg fold changes vs control: 1.2 fold
  TRB@ (210915_x_at) mRNA expression, Avg fold changes vs control: 1.0 fold
  TRB@ (213193_x_at) mRNA expression, Avg fold changes vs control: 1.2 fold
[2]
  209813_x_at avg fold change vs control: 1.0 fold
  AIF1 (209901_x_at) avg fold change vs control: 1.2 fold
  AIF1 (213095_x_at) avg fold change vs control: 1.5 fold
  B2M (201891_s_at) avg fold change vs control: 1.4 fold
  BCL3 (204908_s_at) avg fold change vs control: 1.3 fold
  BTN3A1 (207485_x_at) avg fold change vs control: 1.1 fold
  BTN3A3 (38241_at) avg fold change vs control: 1.2 fold
  BTN3A3 (204820_s_at) avg fold change vs control: 1.3 fold
  BTN3A3 (204821_at) avg fold change vs control: 1.5 fold
  C1QA (218232_at) avg fold change vs control: 1.2 fold
  C1QB (202953_at) avg fold change vs control: 1.1 fold
  C1R (212067_s_at) avg fold change vs control: 1.4 fold
  C1S (208747_s_at) avg fold change vs control: 1.7 fold
  C2 (203052_at) avg fold change vs control: 1.2 fold
  C4A (208451_s_at) avg fold change vs control: 2.4 fold
  CASP1 (209970_x_at) avg fold change vs control: 1.5 fold
  CASP1 (211367_s_at) avg fold change vs control: 1.3 fold
  CCL2 (216598_s_at) avg fold change vs control: 9.0 fold
  CCL3 (205114_s_at) avg fold change vs control: 1.4 fold
  CCL5 (1405_i_at) avg fold change vs control: 2.2 fold
  CCL8 (214038_at) avg fold change vs control: 1.8 fold
  CCL18 (209924_at) avg fold change vs control: 1.6 fold
  CCL19 (210072_at) avg fold change vs control: 1.6 fold
  CCNB2 (202705_at) avg fold change vs control: 1.3 fold
  CD3D (213539_at) avg fold change vs control: 1.9 fold
  CD8A (205758_at) avg fold change vs control: 1.4 fold
  CD14 (201743_at) avg fold change vs control: 1.1 fold
  CD74 (209619_at) avg fold change vs control: 1.3 fold
  CLU (208791_at) avg fold change vs control: 1.0 fold
  CMAH (210571_s_at) avg fold change vs control: 1.4 fold
  CTSC (201487_at) avg fold change vs control: 1.4 fold
  CTSK (202450_s_at) avg fold change vs control: 1.3 fold
  CTSS (202902_s_at) avg fold change vs control: 1.3 fold
  CX3CR1 (205898_at) avg fold change vs control: 1.6 fold
  CXCL9 (203915_at) avg fold change vs control: 1.3 fold
  CXCL10 (204533_at) avg fold change vs control: 1.3 fold
  CXCL11 (210163_at) avg fold change vs control: 2.1 fold
  CXCL11 (211122_s_at) avg fold change vs control: 2.0 fold
  CXCL12 (209687_at) avg fold change vs control: 1.3 fold
  CYBA (203028_s_at) avg fold change vs control: 1.0 fold
  CYBB (203923_s_at) avg fold change vs control: 1.2 fold
  CYP1B1 (202436_s_at) avg fold change vs control: 1.3 fold
  CYP3A5 (214234_s_at) avg fold change vs control: 1.2 fold
  CYP11B1 (214630_at) avg fold change vs control: 0.9 fold
  DUSP6 (208893_s_at) avg fold change vs control: 1.1 fold
  ECGF1 (204858_s_at) avg fold change vs control: 1.4 fold
  ECM1 (209365_s_at) avg fold change vs control: 1.1 fold
  F2RL1 (206429_at) avg fold change vs control: 1.5 fold
  F13A1 (203305_at) avg fold change vs control: 1.3 fold
  FCGR1A (214511_x_at) avg fold change vs control: 1.0 fold
  FCGR3A (204006_s_at) avg fold change vs control: 1.5 fold
  G1P2 (205483_s_at) avg fold change vs control: 2.1 fold
  GZMB (210164_at) avg fold change vs control: 1.8 fold
  HCA127 (220040_x_at) avg fold change vs control: 0.5 fold
  HCK (208018_s_at) avg fold change vs control: 1.2 fold
  HFE (210864_x_at) avg fold change vs control: 0.9 fold
